The values below come from patent US6603060B1, “Method for regulating cell death” (National Institute of Agrobiological Sciences, priority 1998, dated 2003).

Assay [1] deals with TMV-infected NN tobacco leaves. In words: Induction of necrotic lesion formation by protease inhibitors in TMV-inoculated detached leaves, nn tobacco. It is filed as in vivo, N. tabacum cv. Samsun nn. Details: key: (−) = Necrotic lesion not induced; (+) = Necrotic lesion induced. As to the method:
(§1) The following reagents were used as inhibitors: APMSF, Aprotinin and 3,4-D as serine protease inhibitors, E-64 as a cysteine protease inhibitor, EDTA as a metalloprotease inhibitor, and leupeptin as a serine/cysteine protease inhibitor. Each inhibitor was prepared as described below.
(§2) For EDTA (Wako Pure Chemicals. Ind. (Osaka, Japan), an aqueous solution adjusted to pH 8.0 by NaOH was used.
(§3) For E-64 (Boehringer Mannheim, Germany), a 50 mM solution in methanol/H2O (1:1, v/v) was used as a stock solution and subsequently diluted in water to the concentrations indicated below.
(§4) For 3,4-D (Boehringer Mannheim, Germany), a 50 mM solution in dimethyl sulfoxide was used as a stock solution and subsequently diluted in water to the concentrations indicated below.
(§5) Leupeptin, Aprotinin, and APMSP were each used as an aqueous solution.
(§6) In this example, EDTA was used at concentrations of 1 mM, […] and 50 mM, and other inhibitors were used at concentrations of 0.01 mM, 0.1 mM and 1 mM.
(§7) Prior to reagent treatment, tobacco leaves were detached, inoculated with TMV (8 μg/ml in a phosphate buffer (pH 7.0)) or mock (buffer alone), and incubated at 30° C. for 40 hr. After the incubation, petioles of the leaves were put into vials containing 0.5 ml of inhibitor solutions. The solution was absorbed through the petioles and sterile water was added to the vials within 1 hr. The treated leaves were then further incubated at 30° C.

Assay [2] relates to TMV-infected NN tobacco leaves. In words: Induction of necrotic lesion formation by protease inhibitors in TMV-inoculated detached leaves, NN tobacco. Set-up: key to induction of necrotic lesion formation, Tobacco cv. NN: (−) = Necrotic lesion not induced; (+) = Necrotic lesion induced. It is filed as in vivo, N. tabacum cv. Samsun NN. As for the experimental part:
as §1, §2, §3, §4, §5, §6, §7

For another assay, the system named is DS9. Nature of the assay: DS9 transcription level and protein amount after AMD treatment (northern and western blotting analysis). The format is in vivo, NN tobacco. As to the method: Prior to the treatments, tobacco leaves were detached, inoculated with TMV (10 μg/ml in a phosphate buffer (pH 7.0)) or mock inoculated (buffer alone), and incubated at 30° C. for 40 hr. For reagent treatment, after the incubation, petioles of the leaves were put into vials containing 0.5 ml of an inhibitor solutions containing AMD (Sigma Chemical Co., St. Louis, Mo., USA) as a 10% (v/v) methanol aqueous solution. The solution was absorbed through the petioles, and sterile water was added to the vials within 1 hr. For heat treatment, a TMV-infected NN tobacco was subjected to heat shock by treating at 50° C. for 2 minutes. Each of the treated leaves was then further incubated at 30° C. Northern analysis and Western blot analysis were performed as described in Examples 4 and 6. In addition, those treated with water were used as controls.
A general note: A western blot detects proteins with antibodies after separation by electrophoresis.

Assay [3] concerns TMV-infected NN tobacco. The note with it: AMD and heat (50° C., 2 minutes); cited from earlier work.
Assay [4] relates to TMV-infected NN tobacco. The following applies: AMD and heat (50° C., 2 minutes), 30° C.; cited from earlier work.
Assay [5] concerns TMV-infected NN tobacco. Nature of the assay: Induction of HR by EDTA and DCMU treatments, NN tobacco. It is filed as in vivo, N. tabacum cv. Samsun NN. The note with it: 30° C., EDTA 5 mM, DCMU 100 mM, necrotic lesion, PR-1 expression, salicylic acid. As to the method:
(§8) To perform an inhibitor treatment with NN tobacco and nn tobacco, EDTA, a metalloprotease inhibitor, and DCMU (3-(3,4-dichlorophenyl)-1,1-dimethylurea) (Sigma Chemical Co., St Louis, Mo., USA), an inhibitor of electron transport in a photochemical system II (PSII), were used as described in Example 8. An EDTA solution was prepared as described in Example 8. The DCMU was dissolved in methanol. The concentration of the inhibitors were 5 mM and 100 mM, respectively.
(§9) After the treatment, leavs were further incubated at 30° C., then examined regarding the followig: formation of a necrotic lesion; expression of PR-1; presence of a marker gene for the HR protein; and accumulation of salicylic acid. For expression of the PR gene, Northern analysis was performed as described in Example 4. Salicylic acid was quantitated as follows.
(§10) Free salicylic acid was extracted and quantitated as described by Malamy et al. (The Plant Cell, 4, 359 (1992)). HPLC analysis was performed on a μBondasphere, 5-μm C-18 (3.9 mm×15 cm) column maintained at 40° C. Isocratic separation was conducted with 23% (v/v) methanol in 20 mM sodium acetate (pH 5.0). Fluorescence detection was performed at using a Model RF-550A (Shimazu, Japan) at […]. All data were corrected for losses.

Assay [6] relates to TMV-infected NN tobacco. In words: Induction of HR by EDTA and DCMU treatments, nn tobacco. The format is in vivo, N. tabacum cv. Samsun nn. The note with it: 30° C., EDTA 5 mM, DCMU 100 mM, necrotic lesion, PR-1 expression, salicylic acid. As to the method: as §8, §9, §10
Setting [7] is: TMV-inoculated leaves at 30° C., EDTA 1 mM, 10 mM and 50 mM, other inhibitors 0.01 mM, 0.1 mM and 1 mM.

*1 amine or outer side, *2 acyl side, *3 side chain or, on linkers, in order; H or OH if unused. Where a SMILES comes first, the peptide text is derived from it. Bridges are numbered along the chain shown (N, C = ends). Roman numbers before positions name the chains, in order. [ ]: non-standard residue; d: D form. Actinocin(9to1) = Cc1c2oc3c(C)ccc(C(=O)[*:1])c3nc-2c(C(=O)[*:2])c(N)c1=O; NMeV = CN[C@H](C(=O)O)C(C)C; Sar = CNCC(=O)O

Consider `O=c1oc(Cl)c(Cl)c2ccccc12` [3,4-D], for which the “induction of necrotic lesion formation, Tobacco cv. nn” value in assay [1] (setting [7]) is given as “−”. In addition, in assay [2] (setting [7]), the “induction of necrotic lesion formation, Tobacco cv. NN” value is given as “−”.
`Cc1c2oc3c(C)ccc(C(=O)N[C@@H]4C(=O)N[C@H](C(C)C)C(=O)N5CCC[C@H]5C(=O)N(C)CC(=O)N(C)[C@@H](C(C)C)C(=O)O[C@@H]4C)c3nc-2c(C(=O)N[C@@H]2C(=O)N[C@H](C(C)C)C(=O)N3CCC[C@H]3C(=O)N(C)CC(=O)N(C)[C@@H](C(C)C)C(=O)O[C@@H]2C)c(N)c1=O` [AMD, actinomycin D] (I: T[dV]P[Sar][NMeV] / II: T[dV]P[Sar][NMeV]; ester I:1-I:C, II:1-II:C; linker I:N-II:N via Actinocin(9to1)): the DS9 transcription level entry in the assay with DS9 (TMV-infected NN tobacco, 30° C., northern analysis) was “decrease significantly”. Besides, the DS9 protein amount entry in the assay with DS9 (TMV-infected NN tobacco, 30° C., western blot) is on record as “decrease significantly”. The “amount of the DS9 protein, mock infected leaf” value in the assay with DS9 (leaf subjected to mock infection, treated with AMD and heat shock (HS)) is given as “remarkably decreased”. For the same molecule, in the assay on TMV-infected NN tobacco [3], the “HR against TMV infection, nn tobacco” value is given as “the HR was also induced”. In addition, the “HR against TMV infection, NN tobacco” value in the assay with TMV-infected NN tobacco [4] is on record as “the HR is induced”.
Consider `N=C(N)c1ccc(CS(=O)(=O)F)cc1` [APMSF], for which the “induction of necrotic lesion formation, Tobacco cv. nn” value in assay [1] (setting [7]) is recorded as “−”. For the same molecule, the “induction of necrotic lesion formation, Tobacco cv. NN” value in assay [2] (setting [7]) is “−”.
`CN(C)C(=O)Nc1ccc(Cl)c(Cl)c1` [DCMU, 3-(3,4-dichlorophenyl)-1,1-dimethylurea]: the “induction of the HR in NN tobacco” value with TMV-infected NN tobacco [5] was “induced the HR”. In the assay with TMV-infected NN tobacco [6], the “induction of the HR in nn tobacco” value is “induced the HR”.
Take `CC(C)C[C@H](NC(=O)[C@H]1O[C@@H]1C(=O)O)C(=O)NCCCCN=C(N)N` [E-64]: the “induction of necrotic lesion formation, Tobacco cv. nn” value in assay [1] (setting [7]) is given as “−”. The “induction of necrotic lesion formation, Tobacco cv. NN” value in assay [2] (setting [7]) is “−”.
In the case of `O=C(O)CN(CCN(CC(=O)O)CC(=O)O)CC(=O)O` [EDTA], the “induction of necrotic lesion formation, Tobacco cv. nn” value in assay [1] (in vivo) is given as “+”. For the same molecule, the “induction of the HR in NN tobacco” value with TMV-infected NN tobacco [5] is reported as “induced the HR”. In addition, the “induction of the HR in nn tobacco” value with TMV-infected NN tobacco [6] is “induced the HR”. In addition, in assay [2] (in vivo), the “induction of necrotic lesion formation, Tobacco cv. NN” value was “+” and the “necrotic lesion in NN tobacco” value was “necrotic lesion was induced”.
In the case of `CC(=O)N[C@@H](CC(C)C)C(=O)N[C@@H](CC(C)C)C(=O)N[C@H](C=O)CCCNC(=N)N` [leupeptin], the “induction of necrotic lesion formation, Tobacco cv. nn” value in assay [1] (setting [7]) is given as “−”. Besides, the “induction of necrotic lesion formation, Tobacco cv. NN” value in assay [2] (setting [7]) was “−”.
For the molecule Aprotinin, in assay [1] (setting [7]), the “induction of necrotic lesion formation, Tobacco cv. nn” value is “−”. Besides, the “induction of necrotic lesion formation, Tobacco cv. NN” value in assay [2] (setting [7]) is recorded as “−”.
